According to patent US20010014345A1, “MATERIAL, METHOD AND APPARATUS FOR INHIBITING BACTERIAL GROWTH IN AN AQUEOUS MEDIUM” (priority 1995, published 2001):
Several values for one entry are separate records, joined by “and”; a condition that tells them apart may be missing. Identical values can stand only once. Like-named read-outs stand apart in the source and are kept apart here. Each block holds one compound with its values, some of them ahead of it.

Columns and labels:
Pseudomonas aeruginosa [1] = assay: Biocide efficiency (B.E.) of immobilised biocides in recirculating column test; type: cell-based
Pseudomonas aeruginosa [2] = assay: Recirculating column test of immobilised biocide (active beads), viable bacterial counts / growth curve; type: cell-based; conditions: active beads on Amberlite XAD-4 or XAD-2, 10x1 cm column, after 24 hours, FIG. 2
[3] = Presence or absence of free biocide in filter-sterilised culture after contact with active beads (MS and/or HPLC; leaching); type: physicochemical
[4] = Partition coefficients between octanol and water by UV/visible absorption
[5] = column length 10 cm, biocide immobilised on Amberlite XAD-4, 24 h, 30° C., 13.5 ml/min

- logP (physchem): 0.18
SMILES: O=[N+]([O-])C(Br)(CO)CO [Bronopol]
- B.E. (t-24 h) (Pseudomonas aeruginosa [1]; [5]): −0.80

SMILES: CCCCCCCCn1sc2ccccc2c1=O [Compound 1, 2-n-octylbenzoisothiazolin-3-one]
- B.E. (t-24 h) (Pseudomonas aeruginosa [1]; [5]): 0.48
- bacterial population versus blank bead controls (Pseudomonas aeruginosa [2]): significantly lower

SMILES: CCCCCCCCCCCCCCCCn1sc2ccccc2c1=O [Compound 2, 2-n-hexadecyl-benzoisothiazolin-3-one]
- B.E. (t-24 h) (Pseudomonas aeruginosa [1]; column length 10 cm, biocide immobilised on Amberlite XAD-2, 24 h, 30° C., 13.5 ml/min): 0.84
- B.E. (t-24 h) (Pseudomonas aeruginosa [1]; [5]): 0.68 and 1.02 and 0.82 and 0.91
- B.E. (t-24 h) (Pseudomonas aeruginosa [1]; column length 20 cm, biocide immobilised on Amberlite XAD-4, 24 h): 0.99 and 0.64 and 0.75
- B.E. (t-24 h) (Pseudomonas aeruginosa [1]; column length 30 cm, biocide immobilised on Amberlite XAD-4, 24 h): 0.64 and 0.86
- B.E. (t-24 h) (Pseudomonas aeruginosa [1]; column length 40 cm, biocide immobilised on Amberlite XAD-4, 24 h): 0.90

SMILES: CCCCCCCCCCCCCCCCCCn1sc(Cl)cc1=O [Compound 4, 5-chloro-2-n-octadecyl-isothiazolin-3-one]
- B.E. (t-24 h) (Pseudomonas aeruginosa [1]): 0.70 and 0.82 and 0.73 and 0.99 and 0.98

SMILES: CCCCCCCCn1sccc1=O [Compound 5, 2-n-octyl-isothiazolin-3-one]
- B.E. (t-24 h) (Pseudomonas aeruginosa [1]): 0.80 and 0.60
- Present (MS): free biocide in solution [3]: trace

SMILES: CCCCCCCCCCCC[N+](C)(C)CCOc1ccccc1 [Domiphen]
- logP (physchem): 1.7

- P (partition coefficient between octanol and water) ([4]; 25° C., UV/visible absorption): ˜4.5
- logP ([4]; n-octanol/water): 0.6
SMILES: Cn1sc2c(c1=O)CCC2 [Promexal]

- logP (physchem): -1.3
SMILES: O=c1[nH]sc2ccccc12 [Proxel]
